SMILES strings stand for the structures. pIC50, pKd: −log10 of the molar value. Read-outs that look alike come from different tables or passages of the source.

The text below walks through data of paper PMC5404532, “Simplified Reversed Chloroquines To Overcome Malaria Resistance to Quinoline-Based Drugs” (Antimicrobial Agents and Chemotherapy, 2017).

For data set [1], the system named is P. falciparum Dd2 (CQR). As to the kind of experiment: Inhibition of P. falciparum growth, CQR Dd2 (SYBR green I fluorescence). In kind it is cell-based. The source says:
(§1) Inhibition of P. falciparum growth.
(§2) CQS (D6) and CQR (Dd2 and 7G8) P. falciparum maintained continuously in culture were used ([38]). […] The fluorescence readings were plotted against log(drug), and the IC50s were obtained from curve fitting performed by nonlinear regression using either Prism (GraphPad) or Excel (Microsoft) software.

For data set [2], the system named is P. falciparum D6 (CQS). As to the kind of experiment: Inhibition of P. falciparum growth, CQS D6 (SYBR green I fluorescence). In kind it is cell-based.
Source text: as §1, §2

Data set [3] is described as follows: In vitro heme binding (optical titration). The conditions noted are these: 5 μM heme, phosphate buffer 100 mM, pH 5.7; read-out: heme binding dissociation constant (Kd). Here is the method: In vitro heme binding and β-hematin inhibition.
A 5 mM stock solution of heme was prepared by dissolving heme chloride in 0.1 mM NaOH by incubation at 37°C for 30 min. The solution was stored at 4°C for no more than 1 month. At the beginning of each experiment, the stock heme solution was diluted to 5 μM in phosphate buffer (100 mM, pH 5.7) and allowed to equilibrate for 4 h. The 4-h equilibration allowed for the initial heme absorbance to stabilize prior to beginning the titration. Optical titrations with each compound were performed by successive addition of aliquots of its stock solution to the 5 μM heme solution. […] Equilibrium binding constants were determined by nonlinear least-squares analysis ([39]).

For data set [4], the system named is P. falciparum 7G8 (CQR). Kind of data set: Inhibition of P. falciparum growth, CQR 7G8 (SYBR green I fluorescence). Format: cell-based, Plasmodium falciparum.
Source text: as §1, §2

Data set [5] can be described thus: Single-dose toxicity evaluation in mice. The conditions noted are these: single-dose experiments on 1 or 2 mice/compound; doses limited by water solubility. Format: in vivo. The protocol:
The compounds were first converted to water-soluble hydrochloride or phosphate salts for administration in aqueous solution. Efficacy testing was carried out using 4 different dose levels with 5 mice at each level, administered by oral gavage. […] A single-dose toxicity evaluation was also performed, using 1 or 2 mice in each case.

For data set [6], the system named is P. yoelii. As to the kind of experiment: In vivo 3-day suppressive test against P. yoelii in a murine malaria model. On the set-up: species or system Plasmodium yoelii. The conditions noted are these: mice, oral gavage, 3 daily doses, water-soluble hydrochloride or phosphate salts; errors estimated ±20%. The protocol:
A selection of the compounds (compounds 9, 10, 12, 21, 23, and 24) was tested in vivo against P. yoelii in a murine malaria model. The compounds were first converted to water-soluble hydrochloride or phosphate salts for administration in aqueous solution. Efficacy testing was carried out using 4 different dose levels with 5 mice at each level, administered by oral gavage. […] A single-dose toxicity evaluation was also performed, using 1 or 2 mice in each case. The doses were limited by water solubilities.
In vivo 3-day suppressive test.
Female CF-1 mice, at 4 to 5 weeks of age, were injected intravenously with 10^6 erythrocytes infected with P. yoelii ([43][–][45]). The following day, and then daily for a total of 3 doses, 5 mice each were administered the appropriate dose of the compound by gavage and evaluated by direct microscopic analysis of Giemsa-stained blood smears ([46]) 1 day after the final dose. The Portland State University Institutional Animal Care and Use Committee approved the protocols involving animals used in this study.

Data set [7] concerns mouse spleen lymphocytes. As to the kind of experiment: Cytotoxicity against mouse spleen lymphocytes. Format: cell-based. As to conditions: estimated ±50%.
The mark [8] stands for this setting: Plasmodium falciparum, DD2, 72 h; read-out: IC50 (nM) for P. falciparum Dd2.
Setting [9] is: Plasmodium falciparum, D6, 72 h; read-out: IC50 (nM) for P. falciparum D6.
Setting [10] is: Plasmodium falciparum, 7G8, 72 h, read-out: IC50 (nM) for P. falciparum 7G8.

In general, IC50 refers to the concentration at which inhibition is half-maximal. For orientation: pKd means −log10 of the Kd, conventionally taken in molar units. For `FC(F)(F)c1ccc(N2CCN(CCCNc3ccnc4cc(Cl)ccc34)CC2)cc1` [Compound 13, 7-Chloro-N-(3-(4-(4-(trifluoromethyl)phenyl)piperazin-1-yl)propyl)quinolin-4-amine], the IC50 in data set [1] (setting [8]) turned out to be 0.2 nM; in data set [2] (setting [9]), 0.06 nM; in data set [4] (setting [10]), 0.3 nM. Besides, the pKd in data set [3] is roughly 5.30.
Take `FC(F)(F)c1ccc(N2CCN(CCCNc3ccnc4cc(Cl)ccc34)CC2)nc1` [Compound 25, 7-Chloro-N-(3-(4-(5-(trifluoromethyl)pyridin-2-yl)piperazin-1-yl)propyl)quinolin-4-amine]: the IC50 in data set [1] (setting [8]) came out at 0.9 nM; in data set [2] (setting [9]) it was 0.5 nM; in data set [4] (setting [10]) it was 1 nM.
In general, ED50 refers to the dose that gives a 50% effect, or the effect in half of the subjects. For the compound `O=[N+]([O-])c1ccc(N2CCN(CCCNc3ccnc4cc(Cl)ccc34)CC2)nc1` [Compound 24, 7-Chloro-N-(3-(4-(5-nitropyridin-2-yl)piperazin-1-yl)propyl)quinolin-4-amine], the IC50 came out at 0.5 nM in data set [1] (setting [8]), 0.3 nM in data set [2] (setting [9]) and 0.5 nM in data set [4] (setting [10]). For the same compound, the Toxicity observation result in data set [5] is “Well tolerated at 153 mg/kg^c”. Besides, in data set [6], the ED50 was 3 mg/kg/day.
Take `Clc1ccc(N2CCN(CCCNc3ccnc4cc(Cl)ccc34)CC2)cc1` [Compound 10, 7-Chloro-N-(3-(4-(4-chlorophenyl)piperazin-1-yl)propyl)quinolin-4-amine]: the IC50 in data set [1] (setting [8]) came out at 0.5 nM; in data set [2] (setting [9]) it was 0.3 nM; in data set [4] (setting [10]) it was 0.1 nM. The Toxicity observation result in data set [5] is reported as “Death at 260 mg/kg, delayed death of 2/4 mice at 64 mg/kg”. Moreover, the ED50 in data set [6] is 8 mg/kg/day.
Regarding `Clc1ccc2c(NCCCN3CCN(c4ccccn4)CC3)ccnc2c1` [Compound 21, 7-Chloro-N-(3-(4-(pyridin-2-yl)piperazin-1-yl)propyl)quinolin-4-amine], the figures for the IC50 in data set [1] (setting [8]), in data set [2] (setting [9]) and in data set [4] (setting [10]) were 1.1 nM, 0.7 nM and 0.9 nM, respectively. Moreover, the Cytotoxicity in data set [7] is listed as 13,300 nM. In addition, the Toxicity observation entry in data set [5] is “Well tolerated at 435 mg/kg”. The ED50 in data set [6] is on record as 6 mg/kg/day.
On to `O=[N+]([O-])c1ccc(N2CCN(CCCNc3ccnc4cc(Cl)ccc34)CC2)c([N+](=O)[O-])c1` [Compound 27, 7-Chloro-N-(3-(4-(2,4-dinitrophenyl)piperazin-1-yl)propyl)quinolin-4-amine], for which the IC50 in data set [1] (setting [8]) is 0.5 nM; in data set [2] (setting [9]), 0.3 nM; in data set [4] (setting [10]), 0.4 nM.
Usually pIC50 stands for the IC50 on a negative log10 scale, so that one unit is a factor of ten. As to `CCN(CC)CCCC(C)Nc1ccnc2cc(Cl)ccc12` (stereo not shown) [CQ, chloroquine], the IC50 in data set [1] (Plasmodium falciparum, DD2, 72 h, read-out: IC50 (nM) for P. falciparum Dd2) came to 102 nM; in data set [2] (Plasmodium falciparum, D6, 72 h, read-out: IC50 (nM) for P. falciparum D6), 6.9 nM; in data set [4] (Plasmodium falciparum, 7G8, 72 h, read-out: IC50 (nM) for P. falciparum 7G8, CQR 7G8, 72 h, averages from at least 3 runs, normalized to CQ 108 nM, uncertainty ±15%), 106 nM; in data set [4] (read-out: IC50 (nM) for P. falciparum 7G8, CQR 7G8, 72 h, averages from at least 3 runs, normalized to CQ 108 nM, uncertainty ±15%), 108 nM. Also, the pIC50 in data set [1] (Plasmodium falciparum, DD2, read-out: IC50 from dose-response curve against CQR Dd2 (Fig 4b)) is 7.14; in data set [2] (Plasmodium falciparum, D6, read-out: IC50 from dose-response curve against CQS D6 (Fig 4a)), 8.10.
For `Clc1ccc2c(NCCCN3CCN(CCc4ccccc4)CC3)ccnc2c1` [Compound 18, 7-Chloro-N-(3-(4-phenethylpiperazin-1-yl)propyl)quinolin-4-amine], the results for the 50% inhibitory concentration (IC50) in data set [1] (setting [8]), in data set [2] (setting [9]) and in data set [4] (setting [10]) were 1 nM, 0.5 nM and 1.2 nM, respectively.
As to `Clc1ccc2c(NCCCN3CCN(c4ccc(-c5ccccc5)cc4)CC3)ccnc2c1` [Compound 8, N-(3-(4-(Biphenyl-4-yl)piperazin-1-yl)propyl)-7-chloroquinolin-4-amine], the IC50 in data set [1] (setting [8]) amounted to 0.9 nM; in data set [2] (setting [9]) it was 0.6 nM; in data set [4] (setting [10]), 0.2 nM. Also, the pIC50 in data set [1] (Plasmodium falciparum, DD2; read-out: IC50 from dose-response curve against CQR Dd2 (Fig 4b)) is 9.15; in data set [2] (Plasmodium falciparum, D6; read-out: IC50 from dose-response curve against CQS D6 (Fig 4a)), 9.15. Also, the Cytotoxicity in data set [7] is reported as 2,200 nM.
Take `Clc1ccc2c(NCCCN3CCN(c4ccccc4-c4ccccc4)CC3)ccnc2c1` [Compound 6, N-(3-(4-(Biphenyl-2-yl)piperazin-1-yl)propyl)-7-chloroquinolin-4-amine]: the figures for the IC50 in data set [1] (setting [8]) and in data set [2] (setting [9]) were 2.6 nM and 1.2 nM, respectively. In addition, in data set [7], the Cytotoxicity was 1,700 nM.
For the compound `O=[N+]([O-])c1cnc(N2CCN(CCCNc3ccnc4cc(Cl)ccc34)CC2)c([N+](=O)[O-])c1` [Compound 26, 7-Chloro-N-(3-(4-(3,5-dinitropyridin-2-yl)piperazin-1-yl)propyl)quinolin-4-amine], the IC50 worked out at 0.9 nM in data set [1] (setting [8]), 0.5 nM in data set [2] (setting [9]) and 0.9 nM in data set [4] (setting [10]).
As to `Clc1ccc2c(NCCCN3CCN(Cc4cccc5ccccc45)CC3)ccnc2c1` [Compound 19, 7-Chloro-N-(3-(4-(naphthalen-1-ylmethyl)piperazin-1-yl)propyl)quinolin-4-amine], the IC50 was 1.1 nM in data set [1] (setting [8]), 1.1 nM in data set [2] (setting [9]) and 0.8 nM in data set [4] (setting [10]).
On to `O=C(c1ccccc1)N1CCN(CCCNc2ccnc3cc(Cl)ccc23)CC1` [Compound 20, N-(3-(4-Benzoylpiperazin-1-yl)propyl)-7-chloroquinolin-4-amine], for which the IC50 in data set [1] (setting [8]) worked out at 7 nM; in data set [2] (setting [9]), 4 nM; in data set [4] (setting [10]) it was 7 nM.
For `Clc1ccc2c(NCCCN3CCN(c4ccncc4)CC3)ccnc2c1` [Compound 22, 7-Chloro-N-(3-(4-(pyridin-4-yl)piperazin-1-yl)propyl)quinolin-4-amine], the IC50 in data set [1] (setting [8]) is 1.6 nM; in data set [2] (setting [9]), 0.5 nM; in data set [4] (setting [10]), 1.1 nM.
Take `O=[N+]([O-])c1ccc(N2CCN(CCCNc3ccnc4cc(Cl)ccc34)CC2)cc1` [Compound 14, 7-Chloro-N-(3-(4-(4-nitrophenyl)piperazin-1-yl)propyl)quinolin-4-amine]: the concentration for half-maximal inhibition (IC50) in data set [1] (setting [8]) stood at 0.8 nM; in data set [2] (setting [9]), 0.9 nM; in data set [4] (setting [10]) it was 0.3 nM.
As to `Cc1ccc(N2CCN(CCCNc3ccnc4cc(Cl)ccc34)CC2)cc1` [Compound 15, 7-Chloro-N-(3-(4-p-tolylpiperazin-1-yl)propyl)quinolin-4-amine], the IC50 in data set [1] (setting [8]) was determined as 1.3 nM; in data set [2] (setting [9]), 0.1 nM; in data set [4] (setting [10]), 0.5 nM.
Consider `Clc1ccc2c(NCCCN3CCN(c4cccc(-c5ccccc5)c4)CC3)ccnc2c1` [Compound 7, N-(3-(4-(Biphenyl-3-yl)piperazin-1-yl)propyl)-7-chloroquinolin-4-amine], for which the figures for the half-inhibitory concentration (IC50) in data set [1] (setting [8]) and in data set [2] (setting [9]) were 1.8 nM and 0.9 nM, respectively. In addition, in data set [7], the Cytotoxicity is listed as 2,100 nM.
With `Clc1ccc2c(NCCCN3CCN(Cc4ccccc4)CC3)ccnc2c1` [Compound 17, N-(3-(4-Benzylpiperazin-1-yl)propyl)-7-chloroquinolin-4-amine], the IC50 in data set [1] (setting [8]) amounted to 7 nM; in data set [2] (setting [9]), 2.4 nM; in data set [4] (setting [10]), 9 nM.
Take `Fc1ccc(N2CCN(CCCNc3ccnc4cc(Cl)ccc34)CC2)cc1` [Compound 11, 7-Chloro-N-(3-(4-(4-fluorophenyl)piperazin-1-yl)propyl)quinolin-4-amine]: the values for the IC50 in data set [1] (setting [8]), in data set [2] (setting [9]) and in data set [4] (setting [10]) were 0.2 nM, 2 nM and 0.2 nM, respectively. In addition, the pKd in data set [3] was roughly 5.30.
As to `Clc1ccc2c(NCCCN3CCN(c4ncccn4)CC3)ccnc2c1` [Compound 23, 7-Chloro-N-(3-(4-(pyrimidin-2-yl)piperazin-1-yl)propyl)quinolin-4-amine], the IC50 in data set [1] (setting [8]) stood at 2.3 nM; in data set [2] (setting [9]) it was 1.4 nM. For the same compound, the Cytotoxicity in data set [7] is listed as 28,000 nM. Further, the ED50 in data set [6] was 7 mg/kg/day.
